In data set [1] the test system is S. aureus ATCC 25923. The data set is classed as cell-based, Staphylococcus aureus.
For data set [2], the system named is S. aureus ATCC 25923. Description: Spot-on-the-lawn antimicrobial screening. To be noted: 5 µL spots at 1000, 500, 250, 125 and 62.5 µg/mL on LB soft agar lawn; overnight, 37 °C. The data set is classed as cell-based, Staphylococcus aureus. As to the method:
The antimicrobial activity screening assay of twelve chemically synthesized peptides was evaluated using a spot-on-the-lawn assay against S. aureus ATCC 25923.
S. aureus ATCC 25923 was grown overnight in LB broth, adjusted to 0.5 McFarland (~1 × 10^8 CFU/mL), and mixed 1:100 into molten soft agar (0.7% agar in LB). Five milliliters of this suspension was overlaid onto LB agar plates and allowed to solidify.
Peptide stock solutions (1 mg/mL) were serially diluted in sterile water, and 5 µL of each dilution was carefully spotted onto the surface of the inoculated agar. The plates were dried under a laminar flow hood for 15–20 min and incubated overnight at 37 °C. Zones were observed, and their size and clarity were compared.

For data set [3], the system named is S. aureus ATCC 25923. The data set is classed as cell-based, Staphylococcus aureus. As to the method:
MIC values were determined by broth microdilution following the guidelines of the European Committee on Antimicrobial Susceptibility Testing (EUCAST, Version 5.0), with a modification in the choice of medium. Instead of cation-adjusted Mueller–Hinton Broth (CA-MHB), Luria–Bertani (LB) broth was used for all MIC assays involving S. aureus ATCC 25923 to ensure consistency with conditions used in complementary experiments. Two-fold serial dilutions of peptides (ranging from 1.56 to 50 µg/mL) were prepared in sterile LB, inoculated with ~5 × 10^5 CFU/mL bacterial suspension, and incubated at 37 °C for 18–20 h. MIC was defined as the lowest peptide concentration with no visible bacterial growth. All assays were performed in triplicate.
The source holds these as a separate data set.

Data set [4] concerns sheep erythrocytes. In words: Hemolysis assay. The data set is classed as cell-based. As to the method: Hemolytic activity of peptides was assessed as described by Dong et al., with some modifications. Fresh defibrinated sheep blood was obtained from the Institute of Virology, Vaccines and Sera “Torlak” (Belgrade, Serbia). Erythrocytes were washed three times with sterile Tris-buffered saline (TBS, 10 mM TRIS-HCl, pH 7.4, 150 mM NaCl) by centrifugation at 800× g for 5 min and resuspended to a final 2% (v/v) erythrocyte suspension in TBS.
Peptide solutions (0.02 M HCl) were diluted in Tris-buffered saline (TBS, 10 mM TRIS-HCl, pH 7.4, 150 mM NaCl) to final concentrations ranging from 6.25 to 50 µg/mL. In a 96-well flat-bottom plate, 100 µL of peptide solution was mixed with 100 µL of erythrocyte suspension and incubated at 37 °C for 1 h.
After incubation, the plates were centrifuged at 1000× g for 5 min, and 100 µL of the supernatant was transferred to a flat-bottom 96-well plate. Absorbance was measured at 540 nm using a microplate reader (model BioTek Epoch Microplate Spectrophotometer; Agilent Technologies, Winooski, VT, USA).
Hemolysis (%) was calculated relative to a negative control (TBS; 0% lysis) and a positive control (0.1% SDS; 100% lysis) using the formula: Hemolysis (%)=Asample−ATBS/ASDS−ATBS×100
The assay was performed in triplicate.

On the set-up of data set [5]: method as in PMID 28842543. As to conditions: cited from earlier work.
The test system of data set [6] is gut peptidases. More on the design: method as in PMID 28842543. To be noted: cited from earlier work.
Data set [7] deals with Danio rerio embryos. Description: Zebrafish embryo toxicity (OECD TG 236). The data set is classed as in vivo. To be noted: 120 hpf. As to the method: Embryos were exposed to six different increasing concentrations of each peptide for 5 consecutive days (120 hfp) and examined for survival and signs of toxicity, following toxicological endpoints (Table S1).
The toxicity of synthetic peptide variants was assessed in vivo using Danio rerio embryos, in accordance with OECD Test Guideline 236 (Fish Embryo Acute Toxicity Test) and the European Directive 2010/63/EU on the protection of animals used for scientific purposes, according to Aleksic et al.. All procedures were conducted at the Institute of Molecular Genetics and Genetic Engineering, University of Belgrade.
Wild-type adult zebrafish were maintained under standard laboratory conditions (28 °C; 14:10 h light–dark cycle). Embryos were obtained via pairwise mating and collected within 1 h post-fertilization (hpf). At 5 hpf, the embryos were randomly distributed into 24-well plates (10 embryos/well, 1 mL embryo medium per well) containing embryo water (0.2 mg/mL Instant Ocean® salts in distilled water). Peptides were tested at five concentrations (e.g., 1.56–25 µg/mL) in triplicate. Peptide solvent was used as a negative control. The plates were incubated at 28 °C without media replacement.
Embryonic development was monitored using an inverted microscope (Zeiss Stemi 508; Carl Zeiss Microscopy GmbH, Jena, Germany). Lethal endpoints and sublethal malformations were scored according to OECD guidelines (Table S1). At 120 hpf, the embryos were anesthetized using 0.1% tricaine, photographed, and euthanized via freezing at −20 °C for 24 h.
LC50 values were estimated using the log–logistic binomial model (LL.2) from the drc package in R.
Dose–response curves and LC50 values were estimated using the log–logistic binomial model (LL.2) from the drc package in R [79] (version 2025.05.0). Mortality data were modeled as proportions of dead individuals relative to total individuals tested, and 95% confidence intervals for LC50 were calculated using the delta method.

Consider seven sequences from PMC12348470, “Amino Acid Substitutions in Bacteriocin Lactolisterin BU Reveal Functional Domains Involved in Biological Activity Against Staphylococcus aureus” (Molecules, 2025).

Ends that are not written are not given here. A value given as a limit tells only on which side of the number the result lay.

With “MWGRILGTVAKYGTKAVSWAWQHKWELINMGDLAFRYIQRIWG [Peptide P14T]”, in data set [1], the minimum bactericidal concentration (MBC) is reported as above 50 µg/mL. The “zones of inhibition, spot-on-the-lawn assay” value (“zones of inhibition” below) in data set [2] was “retained partial activity with a mild decrease in zone diameter compared to LBU”. In addition, in data set [3], the MIC is listed as 25 µg/mL.

Regarding “MWGRILGTVAKYGPKAVSWAWQAKWELINMGDLAFRYIQRIWG [Peptide H23A]”, the minimum bactericidal concentration (MBC) in data set [1] is listed as above 50 µg/mL. Besides, the “zones of inhibition” value in data set [2] is given as “complete loss of antimicrobial activity”. This sequence also yielded an MIC in data set [3] above 50 µg/mL.

Consider “MWGRILGTVAKYGPKAVSWAWQHKWELINMGDLAFRYIQRIWG [LBU]”, for which the “hemolytic activity, in words” value in data set [4] (6.25 to 50 µg/mL, sheep erythrocytes, 37 °C, 1 h) is on record as “negligible hemolytic activity across all concentrations”. Also, the “Hemolytic activity (%) at 50 µg/mL” value in data set [4] (pH 7.4) was 2.98%. In data set [5], the “pH range of activity” value is listed as “shows activity in a wide pH range” and the salt tolerance result was “salt-tolerable”. Further, the “sensitivity to gut peptidases” value in data set [6] is “sensitive to gut peptidases”. In data set [1], the MBC is 25 µg/mL. The “zones of inhibition” value in data set [2] is on record as “clear zones of inhibition across the tested concentrations, except 62.5 µg/mL”. For the same sequence, the “concentration at which yolk sac retention was observed” value in data set [7] is on record as 6.25 µg/mL. In data set [3], this sequence displayed a minimum inhibitory concentration (MIC) of 12.5 µg/mL.

On to “MWARILGTVAKYGPKAVSWAWQAKWELINMGDLAFRYIQRIWG [G3A/H23A]”, for which the MBC in data set [1] is recorded as above 50 µg/mL. Besides, in data set [2], the “zones of inhibition” value was “complete loss of antimicrobial activity”. Further, the MIC in data set [3] is on record as above 50 µg/mL.

For “MWGRILGTVAKYGAKAVSWAWQHKWELINMGDLAFRYIQRIWG [Peptide P14A]”, the “zones of inhibition” value in data set [2] was “only faint inhibition zones at the highest concentrations (1000 and 500 µg/mL)”. The minimal inhibitory concentration (MIC) in data set [3] came to 25 µg/mL.

“MWGRILGTVAKYGPKAVSWAWQRKWELINMGDLAFRYIQRIWG [Peptide H23R]” yielded a minimal bactericidal concentration (MBC) in data set [1] of 50 µg/mL. For the same sequence, the “zones of inhibition” value in data set [2] is on record as “comparable to the wild-type LBU peptide”. In data set [3], this sequence gave an MIC of 12.5 µg/mL.

In data set [1], “MEGRILGTVAKYGPKAVSWAWQHKWELINMGDLAFRYIQRIWG [Peptide W2E]” gave a minimal bactericidal concentration (MBC) above 50 µg/mL. In data set [2], the “zones of inhibition” value was “decreased antimicrobial potency”. In data set [3], this sequence showed an MIC above 50 µg/mL.
